From patent US20050069907A1, “Methods for using double-mutant RNA polymerases with reduced discrimination between non-canonical and canonical nucleoside triphosphates” (priority 2002, published 2005)

Key:
Assay type in all cases: biochemical
[1] = system: poly(dC); assay: Apparent miscoding on homopolymeric template poly(dC); details: poly(dC)
Protocol: (§1) Transcription reactions: Transcription reactions were carried out in 40 mM Tris-Cl pH 8.0, 15 mM MgCl2, and 5 mM DTT or 20 mM Manganese Citrate pH 8.0, 5 mM DTT at 37° C. Template, polymerase, and NTP concentrations were as indicated in the legends to the figures and tables. Relative activity determinations were made by taking 4 μl aliquots of reactions at 5, 10, and 20 minute time points and spotting on to DE81 filter paper. Unincorporated nucleotides were separated from incorporated nucleotides by washing the filter paper with 0.5 M KH2PO4 pH 7.0 and retained radioactive nucleotide was quantitated with a Molecular Dynamics phosphorimager. To evaluate rNTP/dNTP selectivity, reactions were run with 4 rNTPs and pT75 as template and α-P^32 rNTPs or α-P^32 dNTPs were used to label the transcripts. The relative rate of incorporation of an rNTP vs. its cognate dNTP was determined from the relative percentages of labeled rNTP vs. dNTP incorporated into DE81 retainable RNA at 5, 10, and 20 minute time points. Apparent miscoding frequencies were determined similarly, though in this instance the template was a single-stranded homopolymer and the reaction contained the complementary unlabeled rNTP, and complementary α-P^32 rNTP or one of the 3 non-complementary α-P^32 rNTPs. The relative percentages of labeled complementary vs. non-complementary rNTPs incorporated at 5, 10 and 20 minute time points gave an apparent miscoding rate. The rNTP/dNTP selectivity assay was used to test the following T7 RNAP mutants for effects on substrate discrimination: D537S, D537E, S539A, R5S1S, D552S, R627S, K631S, L637A, Y639S, Y639F, Y639A, G640A, F644A, G645A, Q649S, […], H811S, H811A, D812A, D812E, D812S, D812N, D879E+ΔF882+ΔA883, D879E+A881T+ΔA883, D879E+F884+A885, D879E+F882Y, D879E+ΔA883, D879E+F882W, D879E.
(§2) An increase in miscoding would be reflected in an increase in the rate of incorporation of the non-complementary NTP into RNA.
(§3) Numbers are averages from 2 experiments and reflect the ratio of the percentages of labeled rNTPs incorporated into RNA in reactions in which unlabeled complementary rNTPs were in great excess (0.5 mM) to labeled complementary or non-complementary rNTPs. Templates were at 0.1 mg/ml. Polymerases were at 10^−8 M in Mg^2+ buffer and 10^−7 M in Mn^2+ buffer.
(§4) *The upper number refers to results obtained in Mg^2+ buffer, the lower number to results in Mn^2+ buffer. n.d.: G640A, Y639A, Y639S were poorly active in Mn^2+ buffer, or on poly(dT) under all conditions.

[2] = system: poly(dT); assay: Apparent miscoding on homopolymeric template poly(dT)
Protocol: as §1, §2, §3, §4

[3] = system: HindIII-cut pT75; assay: Run-off transcription with 2′-OMe- or 2′-azido-NTPs on HindIII-cut pT75; details: for Reduction of run-off transcript synthesis: 2′-OMe-UTP; for Reduction of run-off transcript yields relative to 4 NTPs: 2′-azido-UTP
Protocol: RNAPs were prepared as described (Brieba, L G, and Sousa, R. Biochemistry, 39: 919-923, 2000). Transcription reactions were carried out for 30 min. at room temperature in 40 mM Tris-Cl, pH 8.0, 6 mM MgCl2, 10 mM NaCl, 2 mM spermidine, with templates at 10^−7 M and RNAPs at 2×10^−7 M. All NTPs were used at 0.5 mM, and transcripts were labeled by inclusion of 1% v/v 800 Ci/mM […] in the reaction. Modified NTPs were from Trilink Biotechnologies. Reactions were stopped by addition of an equal volume of 90% formamide, 50 mM EDTA, 0.01% xylene cyanol, resolved by electrophoresis in 20% acrylamide, 1% bis-acrylamide, 1×TBE gels, and visualized on a Molecular Dynamics Phosphorimager.
With the pPK5 template, UMP and CMP are not incorporated into the first 9 nt of RNA. Incorporation of non-canonical NMPs during synthesis of the first 9 nt of RNA is expected to cause greater reductions in run-off transcript synthesis because the RNA is readily released from the transcription complex during this initial phase of transcription. Therefore, if incorporation of a non-canonical NMP is slow, the RNA will usually dissociate before the NMP is incorporated. […] To see whether NMPs with bulky 2′-substituents could be incorporated during the initial phase of transcription a Hind-III linearized pT75 (Tabor, S. and Richardson, C. C., “A bacteriophage T7 RNA polymerase/promoter system for controlled exclusive expression of specific genes,” Proc. Natl. Acad. Sci. USA 82:1074-1078, 1985) was used. On this template, UMP is first incorporated at +14 while CMP is incorporated at +6 and +7. In reactions with 2′-OMe-UTP run-off transcript synthesis is reduced 11-fold, 5-fold, and <2-fold with the wild-type, and the Y639F, and Y639F/H784A mutants, respectively (FIG. 2c; lanes 2, 6, 10). However, in reactions with 2′-OMe-CTP run-off transcription is undetectable with the wild-type or Y639F enzymes (FIG. 2c; lanes 3, 4, 7, 8), and is reduced ˜700-fold with Y639F/H784A (FIG. 2c; lanes 11, 12).
Run-off transcript yields in reactions with HindIII-cut pT75 and 2′-azido-UTP are reduced 18-, 8.5-, and <2-fold with wild-type and Y639F and Y639F/H784 mutants, respectively (FIG. 2d; lanes 2, 6, 10), relative to reactions with 4 NTPs (FIG. 2d; lanes 1, 5, 9). In reactions with 2′-azido-CTP, or both 2′-azido-CTP and 2′-azido-UTP, run-off transcription is undetectable with the wild-type enzyme (FIG. 2d; lanes 3, 4), is reduced 65-fold with Y639F (FIG. 2d; lanes 7, 8), but is reduced only 7-fold with Y639F/H784A (FIG. 2d; lanes 11, 12).

[4] = 2′-azido-CTP, or both 2′-azido-CTP and 2′-azido-UTP

| Substance | Relative rate of incorporation GTP/ATP ([1]; Mg^2+ buffer) | Relative rate of incorporation GTP/CTP ([1]; Mg^2+ buffer) | Relative rate of incorporation GTP/ATP ([1]; Mn^2+ buffer) | Relative rate of incorporation GTP/CTP ([1]; Mn^2+ buffer) | Relative rate of incorporation GTP/UTP ([1]; Mn^2+ buffer) | Increase in miscoding rates in Mn^2+ buffer, on average [2] [fold] | Relative rate of incorporation ATP/CTP ([2]; Mg^2+ buffer) | Relative rate of incorporation ATP/GTP ([2]; Mg^2+ buffer) | Relative rate of incorporation ATP/UTP ([2]; Mg^2+ buffer) | Relative rate of incorporation ATP/CTP ([2]; Mn^2+ buffer) | Relative rate of incorporation ATP/GTP ([2]; Mn^2+ buffer) | Relative rate of incorporation ATP/UTP ([2]; Mn^2+ buffer) | Reduction of run-off transcription ([3]; 2′-OMe-CTP) | Reduction of run-off transcript synthesis [3] [fold] | Reduction of run-off transcription [3, 4] | Reduction of run-off transcript yields relative to 4 NTPs [3] [fold] | Relative rate of incorporation GTP/UTP ([1]; Mg^2+ buffer) | Increase, relative to W.T., in ratio of rates of rGTP to rATP incorporation [2] [fold] |
| --- | --- | --- | --- | --- | --- | --- | --- | --- | --- | --- | --- | --- | --- | --- | --- | --- | --- | --- |
| W.T.: wild-type T7 RNA polymerase [reference compound] | 233 | 400 | 9.3 | 32 | 53 (Mn2+)* | ~5 | >340 | 170 | 121 | 77 | 50 | 21 | undetectable | 11 | undetectable | 18 |  |  |
| Y639F: T7 RNAP with wild-type tyrosine at position 639 substituted by phenylalanine | 338 | 550 | 8 | 40 | 55 | ~5 | >94 | 94 | 94 | 60 | 27 | 20 | undetectable | 5 | 65 fold | 8.5 | >1760 | ~2 |
